pIC50, pKd, pKi: −log10 of the molar value.
Columns and labels:
[1] = target: T1, Adrenergic receptor alpha-1 (Homo sapiens, UniProt P35348+P25100+P35368); assay: Inhibition constant against alpha adrenergic receptor; type: protein assay
T1 sequence (P35348 whole entry): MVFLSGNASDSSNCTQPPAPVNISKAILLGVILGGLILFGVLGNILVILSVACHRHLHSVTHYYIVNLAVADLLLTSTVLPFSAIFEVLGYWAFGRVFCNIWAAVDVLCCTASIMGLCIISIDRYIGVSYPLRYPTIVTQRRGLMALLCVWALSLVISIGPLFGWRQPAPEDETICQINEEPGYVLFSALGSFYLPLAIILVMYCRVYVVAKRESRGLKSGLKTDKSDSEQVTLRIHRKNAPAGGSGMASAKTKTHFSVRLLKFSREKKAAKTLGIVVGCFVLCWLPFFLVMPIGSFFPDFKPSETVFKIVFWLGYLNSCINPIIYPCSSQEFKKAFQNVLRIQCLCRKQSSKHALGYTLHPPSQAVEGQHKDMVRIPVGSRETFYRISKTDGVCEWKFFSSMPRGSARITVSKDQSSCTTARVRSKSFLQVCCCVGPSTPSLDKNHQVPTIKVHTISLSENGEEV
T1 sequence (P25100 whole entry): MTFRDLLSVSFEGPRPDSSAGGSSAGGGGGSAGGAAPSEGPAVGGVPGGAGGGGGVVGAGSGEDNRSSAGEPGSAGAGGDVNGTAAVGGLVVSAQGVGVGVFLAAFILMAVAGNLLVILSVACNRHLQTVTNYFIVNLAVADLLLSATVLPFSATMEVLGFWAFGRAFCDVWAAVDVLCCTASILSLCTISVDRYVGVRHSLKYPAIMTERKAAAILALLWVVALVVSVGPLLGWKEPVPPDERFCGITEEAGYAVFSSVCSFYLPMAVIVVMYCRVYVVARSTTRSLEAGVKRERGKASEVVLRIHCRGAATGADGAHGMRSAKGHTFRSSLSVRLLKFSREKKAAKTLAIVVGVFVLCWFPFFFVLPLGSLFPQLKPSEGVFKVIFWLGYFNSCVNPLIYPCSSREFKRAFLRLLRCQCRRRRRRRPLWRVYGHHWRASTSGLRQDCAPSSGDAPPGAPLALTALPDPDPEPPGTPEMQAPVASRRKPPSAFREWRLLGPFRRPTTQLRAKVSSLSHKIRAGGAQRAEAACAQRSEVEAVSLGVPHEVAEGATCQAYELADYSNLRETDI
T1 sequence (P35368 whole entry): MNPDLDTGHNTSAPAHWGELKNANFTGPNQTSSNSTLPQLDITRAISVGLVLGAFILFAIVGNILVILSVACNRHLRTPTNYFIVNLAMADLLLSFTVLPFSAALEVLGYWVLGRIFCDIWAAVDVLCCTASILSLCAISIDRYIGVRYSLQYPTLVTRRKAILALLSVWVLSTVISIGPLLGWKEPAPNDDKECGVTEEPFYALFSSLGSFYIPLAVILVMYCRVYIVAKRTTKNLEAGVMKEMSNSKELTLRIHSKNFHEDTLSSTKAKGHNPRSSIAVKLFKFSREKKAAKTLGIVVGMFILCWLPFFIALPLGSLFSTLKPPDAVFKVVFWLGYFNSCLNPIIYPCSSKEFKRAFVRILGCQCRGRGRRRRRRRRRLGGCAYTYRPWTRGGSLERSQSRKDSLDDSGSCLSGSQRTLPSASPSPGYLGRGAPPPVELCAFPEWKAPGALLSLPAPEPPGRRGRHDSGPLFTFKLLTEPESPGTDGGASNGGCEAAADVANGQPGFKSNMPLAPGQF

[2] = target: T2, D(2) dopamine receptor (Homo sapiens, UniProt P14416)
T2 sequence (P14416 whole entry): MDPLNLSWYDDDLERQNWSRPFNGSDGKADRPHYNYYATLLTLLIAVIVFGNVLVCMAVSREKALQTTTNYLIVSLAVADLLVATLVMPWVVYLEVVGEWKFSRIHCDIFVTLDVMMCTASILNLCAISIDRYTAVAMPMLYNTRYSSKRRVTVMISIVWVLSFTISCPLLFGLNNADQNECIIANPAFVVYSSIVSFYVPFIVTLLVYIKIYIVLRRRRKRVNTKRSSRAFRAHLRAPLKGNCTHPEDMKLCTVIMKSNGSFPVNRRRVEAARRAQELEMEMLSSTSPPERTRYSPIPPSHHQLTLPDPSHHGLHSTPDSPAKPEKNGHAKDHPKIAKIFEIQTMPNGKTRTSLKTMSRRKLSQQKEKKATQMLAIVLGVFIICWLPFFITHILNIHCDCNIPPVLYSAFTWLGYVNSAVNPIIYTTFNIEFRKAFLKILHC
Description: Inhibition constant against dopamine receptor D2

[3] = target: T3, Sodium-dependent serotonin transporter (Homo sapiens, UniProt P31645)
T3 sequence (P31645 whole entry): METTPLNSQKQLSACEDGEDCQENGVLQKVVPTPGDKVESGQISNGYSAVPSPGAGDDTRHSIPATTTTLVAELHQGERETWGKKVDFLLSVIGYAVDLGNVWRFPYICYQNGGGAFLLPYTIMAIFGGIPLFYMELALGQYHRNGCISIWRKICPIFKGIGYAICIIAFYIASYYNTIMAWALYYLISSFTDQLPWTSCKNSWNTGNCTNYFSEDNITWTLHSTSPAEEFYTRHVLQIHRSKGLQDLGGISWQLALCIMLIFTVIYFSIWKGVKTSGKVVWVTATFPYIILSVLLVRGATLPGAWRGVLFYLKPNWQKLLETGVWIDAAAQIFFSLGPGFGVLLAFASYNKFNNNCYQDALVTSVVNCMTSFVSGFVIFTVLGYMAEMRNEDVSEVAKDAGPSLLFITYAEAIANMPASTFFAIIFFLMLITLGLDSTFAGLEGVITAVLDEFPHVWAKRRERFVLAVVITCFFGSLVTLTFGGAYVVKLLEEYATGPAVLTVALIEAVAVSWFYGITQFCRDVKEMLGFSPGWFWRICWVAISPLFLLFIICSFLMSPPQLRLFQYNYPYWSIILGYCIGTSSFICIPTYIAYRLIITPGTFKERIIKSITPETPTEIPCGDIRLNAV
Description: Inhibitory concentration against serotonin transporter

[4] = target: 5-hydroxytryptamine receptor 1D (Homo sapiens, UniProt P28221); assay: Inhibition constant against 5-hydroxytryptamine 1D receptor
[5] = target: 5-hydroxytryptamine receptor 1B (Homo sapiens, UniProt P28222)
Description: Inhibition constant against 5-HT 1B receptor

[6] = target: Tyrosine-protein kinase ABL1 (Homo sapiens, UniProt P00519); assay: Inhibitory concentration against v-Abl tyrosine kinase
[7] = target: Sodium-dependent dopamine transporter (Homo sapiens, UniProt Q01959)
Description: Inhibitory concentration against dopamine transporter

[8] = target: 5-hydroxytryptamine receptor 2A (Rattus norvegicus, UniProt P14842); assay: Inhibition constant against 5-Hydroxytryptamine 2 receptor in olfactory bulbectomized rat
[9] = target: T4, 5-hydroxytryptamine receptor 1A (Homo sapiens, UniProt P08908)
T4 sequence (P08908 whole entry): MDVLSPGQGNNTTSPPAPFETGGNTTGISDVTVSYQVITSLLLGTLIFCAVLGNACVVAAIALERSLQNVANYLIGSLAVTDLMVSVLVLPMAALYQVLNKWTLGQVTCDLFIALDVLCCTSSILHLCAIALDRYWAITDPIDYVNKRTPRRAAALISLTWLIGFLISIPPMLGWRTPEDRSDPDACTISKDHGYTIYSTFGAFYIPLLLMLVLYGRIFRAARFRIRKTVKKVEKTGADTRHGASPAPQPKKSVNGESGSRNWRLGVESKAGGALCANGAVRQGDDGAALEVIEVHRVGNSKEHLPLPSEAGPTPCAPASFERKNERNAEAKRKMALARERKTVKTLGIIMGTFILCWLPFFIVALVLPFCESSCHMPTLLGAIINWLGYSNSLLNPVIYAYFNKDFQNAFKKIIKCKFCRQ
Description: Inhibition constant against 5-hydroxytryptamine 1A receptor

[10] = target: Cysteinyl leukotriene receptor 1 (Cavia porcellus, UniProt Q2NNR5); assay: Inhibitory concentration against LTD4-induced contraction of guinea pig ileum at 10 uM concentration; type: tissue-based
Sequence of Cysteinyl leukotriene receptor 1 (Q2NNR5 whole entry): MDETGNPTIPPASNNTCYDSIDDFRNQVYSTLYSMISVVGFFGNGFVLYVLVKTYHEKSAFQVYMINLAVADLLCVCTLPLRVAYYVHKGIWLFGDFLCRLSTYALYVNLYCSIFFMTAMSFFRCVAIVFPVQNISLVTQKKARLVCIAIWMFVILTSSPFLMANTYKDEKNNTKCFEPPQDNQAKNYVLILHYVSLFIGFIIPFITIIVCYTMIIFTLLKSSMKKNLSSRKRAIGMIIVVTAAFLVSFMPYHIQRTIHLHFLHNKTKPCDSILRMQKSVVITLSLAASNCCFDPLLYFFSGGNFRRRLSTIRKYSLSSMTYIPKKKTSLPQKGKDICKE

[11] = target: T5, Substance-P receptor (Homo sapiens, UniProt P25103); assay: Inhibitory concentration against tachykinin receptor 1
T5 sequence (P25103 whole entry): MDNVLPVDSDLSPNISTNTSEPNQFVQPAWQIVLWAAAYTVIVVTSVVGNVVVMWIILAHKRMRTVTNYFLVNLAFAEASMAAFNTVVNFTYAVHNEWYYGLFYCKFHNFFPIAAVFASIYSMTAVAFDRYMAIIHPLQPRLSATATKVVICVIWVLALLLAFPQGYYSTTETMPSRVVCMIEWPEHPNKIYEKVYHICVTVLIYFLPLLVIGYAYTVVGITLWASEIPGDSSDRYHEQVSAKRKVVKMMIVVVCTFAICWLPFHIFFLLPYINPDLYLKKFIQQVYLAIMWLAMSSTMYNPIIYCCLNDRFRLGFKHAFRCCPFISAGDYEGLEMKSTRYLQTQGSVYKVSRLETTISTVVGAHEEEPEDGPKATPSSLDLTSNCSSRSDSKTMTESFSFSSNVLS

[12] = target: T6, Substance-K receptor (Homo sapiens, UniProt P21452)
T6 sequence (P21452 whole entry): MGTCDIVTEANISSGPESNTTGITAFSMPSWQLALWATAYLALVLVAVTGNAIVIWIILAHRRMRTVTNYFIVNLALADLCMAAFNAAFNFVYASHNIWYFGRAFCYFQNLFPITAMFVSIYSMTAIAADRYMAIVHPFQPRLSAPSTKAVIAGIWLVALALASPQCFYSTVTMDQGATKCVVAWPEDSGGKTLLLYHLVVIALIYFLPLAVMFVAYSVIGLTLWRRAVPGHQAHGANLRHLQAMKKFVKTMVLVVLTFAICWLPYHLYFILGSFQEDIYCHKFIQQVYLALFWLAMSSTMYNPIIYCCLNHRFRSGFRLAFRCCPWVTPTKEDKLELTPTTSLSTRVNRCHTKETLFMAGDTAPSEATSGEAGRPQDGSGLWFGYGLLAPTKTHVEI
Description: Inhibitory concentration against tachykinin receptor 2

[13] = Oral bioavailability; type: ADME, organism-based; settings: eutheria, in vivo
[14] = target: T3, Sodium-dependent serotonin transporter; remark: listed apart in the source
Description: Inhibition constant against serotonin transporter

[15] = target: T6, Substance-K receptor; assay: Binding affinity towards tachykinin receptor 2
[16] = target: T5, Substance-P receptor
Description: Binding affinity towards tachykinin receptor 1

[17] = target: Platelet-activating factor receptor (Homo sapiens, UniProt P25105)
Sequence of Platelet-activating factor receptor (P25105 whole entry): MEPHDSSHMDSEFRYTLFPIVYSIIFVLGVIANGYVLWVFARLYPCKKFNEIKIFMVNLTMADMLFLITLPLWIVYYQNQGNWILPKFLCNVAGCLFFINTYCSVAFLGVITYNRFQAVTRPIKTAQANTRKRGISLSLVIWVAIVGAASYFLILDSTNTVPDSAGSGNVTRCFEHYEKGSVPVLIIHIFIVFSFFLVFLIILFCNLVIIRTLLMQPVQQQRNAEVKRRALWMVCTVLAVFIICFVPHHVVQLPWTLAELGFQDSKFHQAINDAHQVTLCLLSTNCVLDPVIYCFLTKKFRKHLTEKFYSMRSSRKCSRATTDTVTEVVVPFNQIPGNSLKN
Description: Inhibitory concentration against platelet activating factor receptor

[18] = target: T5, Substance-P receptor; assay: Negative logarithm causing 50% receptor occupancy against tachykinin receptor 1
[19] = target: T3, Sodium-dependent serotonin transporter; assay: Negative logarithm causing 50% receptor occupancy against serotonin transporter
[20] = target: T4, 5-hydroxytryptamine receptor 1A; assay: Inhibitory concentration against 5-hydroxytryptamine 1A receptor
[21] = target: T2, D(2) dopamine receptor; remark: listed apart in the source
Description: Inhibitory concentration against dopamine receptor D2

[22] = target: 5-hydroxytryptamine receptor 2A (Homo sapiens, UniProt P28223)
Sequence of 5-hydroxytryptamine receptor 2A (Homo sapiens, UniProt P28223) (P28223 whole entry): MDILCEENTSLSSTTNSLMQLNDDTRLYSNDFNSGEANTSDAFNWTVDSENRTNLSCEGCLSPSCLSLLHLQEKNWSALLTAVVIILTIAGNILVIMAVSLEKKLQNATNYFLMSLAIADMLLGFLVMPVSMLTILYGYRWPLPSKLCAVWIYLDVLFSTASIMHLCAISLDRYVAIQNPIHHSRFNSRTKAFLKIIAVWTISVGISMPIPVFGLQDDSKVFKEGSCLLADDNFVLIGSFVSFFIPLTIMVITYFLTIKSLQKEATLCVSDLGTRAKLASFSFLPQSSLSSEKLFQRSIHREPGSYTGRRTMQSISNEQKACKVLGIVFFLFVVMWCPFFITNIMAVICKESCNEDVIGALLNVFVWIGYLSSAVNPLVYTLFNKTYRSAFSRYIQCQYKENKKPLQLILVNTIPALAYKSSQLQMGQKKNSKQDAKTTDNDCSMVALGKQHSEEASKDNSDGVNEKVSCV
Description: Inhibitory concentration against 5-hydroxytryptamine 2 receptor

[23] = target: T1, Adrenergic receptor alpha-1
Description: Inhibitory concentration against alpha adrenergic receptor

[24] = target: Angiotensin-converting enzyme (Homo sapiens, UniProt P12821); assay: Inhibitory concentration against angiotensin I converting enzyme
Sequence of Angiotensin-converting enzyme (P12821 whole entry): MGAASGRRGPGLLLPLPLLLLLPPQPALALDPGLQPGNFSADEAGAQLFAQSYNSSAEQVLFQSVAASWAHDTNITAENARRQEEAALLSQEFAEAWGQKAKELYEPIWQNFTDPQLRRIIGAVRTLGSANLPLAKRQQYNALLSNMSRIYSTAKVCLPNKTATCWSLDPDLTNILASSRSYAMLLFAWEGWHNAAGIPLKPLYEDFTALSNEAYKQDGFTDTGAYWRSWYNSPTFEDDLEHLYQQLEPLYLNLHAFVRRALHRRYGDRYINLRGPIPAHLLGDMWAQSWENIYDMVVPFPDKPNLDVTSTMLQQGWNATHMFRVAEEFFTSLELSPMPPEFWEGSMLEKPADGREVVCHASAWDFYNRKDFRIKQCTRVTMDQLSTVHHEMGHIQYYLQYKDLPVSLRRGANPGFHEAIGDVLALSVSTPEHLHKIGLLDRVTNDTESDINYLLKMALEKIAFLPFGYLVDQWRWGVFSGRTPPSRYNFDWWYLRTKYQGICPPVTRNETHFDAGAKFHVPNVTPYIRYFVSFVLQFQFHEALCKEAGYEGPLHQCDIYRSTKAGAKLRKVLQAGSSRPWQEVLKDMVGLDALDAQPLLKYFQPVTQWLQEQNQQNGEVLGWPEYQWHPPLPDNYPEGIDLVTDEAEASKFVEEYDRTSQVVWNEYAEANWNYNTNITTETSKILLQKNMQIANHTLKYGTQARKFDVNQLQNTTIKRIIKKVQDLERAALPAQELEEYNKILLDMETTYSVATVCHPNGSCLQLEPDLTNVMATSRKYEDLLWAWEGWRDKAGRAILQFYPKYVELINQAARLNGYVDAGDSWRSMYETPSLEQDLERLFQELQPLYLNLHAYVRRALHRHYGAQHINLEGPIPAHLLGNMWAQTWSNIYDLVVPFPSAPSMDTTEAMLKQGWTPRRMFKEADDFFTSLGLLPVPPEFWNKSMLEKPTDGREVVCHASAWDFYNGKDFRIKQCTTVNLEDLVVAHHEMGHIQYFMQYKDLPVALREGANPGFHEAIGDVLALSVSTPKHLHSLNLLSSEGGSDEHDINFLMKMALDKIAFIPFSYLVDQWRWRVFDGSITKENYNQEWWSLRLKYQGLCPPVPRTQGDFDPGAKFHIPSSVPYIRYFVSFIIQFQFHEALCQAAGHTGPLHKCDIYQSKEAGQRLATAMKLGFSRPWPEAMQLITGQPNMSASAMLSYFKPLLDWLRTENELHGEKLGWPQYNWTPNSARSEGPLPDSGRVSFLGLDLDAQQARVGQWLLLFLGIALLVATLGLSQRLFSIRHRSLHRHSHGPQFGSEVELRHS

[25] = target: Neprilysin (Homo sapiens, UniProt P08473)
Description: Inhibitory concentration against neutral endopeptidase

[26] = target: T7, Histamine H1 receptor (Homo sapiens, UniProt P35367)
T7 sequence (P35367 whole entry): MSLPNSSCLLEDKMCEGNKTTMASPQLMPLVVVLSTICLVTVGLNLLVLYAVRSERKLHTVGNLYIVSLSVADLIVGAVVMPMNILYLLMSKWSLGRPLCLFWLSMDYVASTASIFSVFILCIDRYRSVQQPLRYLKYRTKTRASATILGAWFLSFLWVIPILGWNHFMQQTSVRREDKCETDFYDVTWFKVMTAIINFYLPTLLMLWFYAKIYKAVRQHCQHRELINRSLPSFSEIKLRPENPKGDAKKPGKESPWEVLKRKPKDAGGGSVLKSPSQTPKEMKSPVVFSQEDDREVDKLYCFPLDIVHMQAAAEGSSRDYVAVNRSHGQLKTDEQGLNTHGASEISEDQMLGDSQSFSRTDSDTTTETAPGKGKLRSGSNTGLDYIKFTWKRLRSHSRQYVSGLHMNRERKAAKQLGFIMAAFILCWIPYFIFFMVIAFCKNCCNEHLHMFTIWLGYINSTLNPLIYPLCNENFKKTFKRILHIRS
Description: Inhibitory concentration against histamine H1 receptor

[27] = target: T8, Gastrin/cholecystokinin type B receptor (Homo sapiens, UniProt P32239); assay: Inhibitory concentration against gastrin receptor
T8 sequence (P32239 whole entry): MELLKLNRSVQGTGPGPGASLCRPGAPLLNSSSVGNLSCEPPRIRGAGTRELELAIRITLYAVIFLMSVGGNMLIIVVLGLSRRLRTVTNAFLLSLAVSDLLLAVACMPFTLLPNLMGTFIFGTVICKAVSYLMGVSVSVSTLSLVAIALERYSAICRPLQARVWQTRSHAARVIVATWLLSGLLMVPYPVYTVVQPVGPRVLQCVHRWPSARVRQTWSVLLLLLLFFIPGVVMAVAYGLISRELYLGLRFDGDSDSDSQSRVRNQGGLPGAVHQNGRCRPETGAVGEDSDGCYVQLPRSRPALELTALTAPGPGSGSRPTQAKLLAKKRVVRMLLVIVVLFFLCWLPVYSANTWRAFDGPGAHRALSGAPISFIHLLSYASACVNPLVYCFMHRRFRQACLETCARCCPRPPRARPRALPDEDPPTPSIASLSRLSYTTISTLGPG

[28] = target: T8, Gastrin/cholecystokinin type B receptor; assay: Inhibitory concentration against Cholecystokinin B receptor
[29] = target: Histamine H2 receptor (Homo sapiens, UniProt P25021); assay: Negative logarithm of the drug concentration against H2 histamine receptor; settings: read-out: pA2 (converted)
[30] = target: T7, Histamine H1 receptor; remark: listed apart in the source
Description: Dissociation constant against histamine H1 receptor

[31] = target: Acetylcholinesterase (Homo sapiens, UniProt P22303)
Description: Inhibitory concentration against acetylcholinesterase

[32] = target: Beta-2 adrenergic receptor (Homo sapiens, UniProt P07550); assay: Negative logarithm causing 50% receptor occupancy against beta-2 adrenergic receptor
[33] = target: T5, Substance-P receptor; remark: listed apart in the source
Description: Inhibitory concentration against neurokinin NK1 receptor

[34] = target: Procathepsin L (Homo sapiens, UniProt P07711); assay: Inhibitory concentration against cathepsin L
[35] = target: Adrenergic receptor alpha-1 (Homo sapiens) (UniProt P35348+P25100+P35368); assay: Inhibition constant against alpha adrenergic receptor at 0.1 uM concentration; type: protein assay

NC(=O)c1ccc2c(c1)CCOC2CCN1CC=C(c2c[nH]c3cc(F)ccc23)CC1 (configuration not stated)
Ki [1]: 16 nM | pKi [2]: 8.33 | pIC50 [3]: 9.96

C[C@@H]1CN(c2cccc3cc(F)ccc23)CCN1CCC1OCCc2c1sc(C(N)=O)c2Cl (some centres not stated)
Ki [1]: 140 nM | pKi [4]: 7.35 | pKi [5]: < 6.00 | pKi [2]: 6.54 | pIC50 [3]: 8.68

O=C(Nc1cccc(Nc2nccc(-c3cccnc3)n2)c1)c1ccccc1
pIC50 [6]: 6.40

CN(C)C[C@@H]1C2CCC(CC2)[C@@H]1c1cccc(Cl)c1
pIC50 [7]: 7.55 | pIC50 [3]: 6.57

COc1cccc2c1CCC[C@H]2CN(C)CCc1ccc2ccoc2c1
pKi [8]: 6.84 | pKi [9]: 8.70

CN1CCC(=C2c3ccccc3C=Cc3ccccc32)CC1 [CYPROHEPTADINE]
pIC50 [10]: < 4.00

COc1cc(C(=O)N2CC[C@@](CCN3CCC(C(N)=O)(c4ccccc4)CC3)(c3ccc(Cl)c(Cl)c3)C2)cc(OC)c1OC
pIC50 [11]: 8.51 | pIC50 [12]: 8.08

OC(CCc1ccccc1)CN1CCC2(CC1)OCc1c2ccc2ccccc12 (configuration not stated)
bioavailability [13]: 65% | pKi [14]: 8.00

CN(C(=O)c1cc(C(F)(F)F)cc(C(F)(F)F)c1)[C@@H](/C=C/C(=O)NCCN1CCCCC1)Cc1ccc(Cl)cc1
pIC50 [15]: 7.31 | pIC50 [16]: 8.00

Cc1cncc(CN2CCC(=C3c4ccc(Cl)cc4CCc4cccnc43)CC2)c1 [RUPATADINE]
pIC50 [17]: 5.43

O=C(CCc1cc(C(F)(F)F)cc(C(F)(F)F)c1)N(c1ccc(F)cc1)C1CCNCC1
pKi [18]: 6.70 | pKi [19]: 6.60

O=C1Cc2cc(CCN3CCN(c4cccc5ccccc45)CC3)ccc2N1
pIC50 [20]: 8.30 | pIC50 [21]: 7.36 | pIC50 [22]: 7.70 | IC50 [23]: 45 nM

O=C(N[C@H]1Cc2ccccc2C2CCC[C@H](C(=O)O)N2C1=O)[C@H](S)Cc1ccccc1 (some centres not stated)
pIC50 [24]: 9.96 | pIC50 [25]: 10.10

CC(=O)N1CCC(=C2c3ccc(Cl)cc3CCc3cccnc32)CC1 [SCH-37370]
pIC50 [26]: 7.00 | pIC50 [17]: 6.08

c1ccc2c(N3CCNCC3)cccc2c1
pIC50 [21]: < 6.00 | pIC50 [22]: 7.21

CN1C(=O)[C@H](NC(=O)Nc2ccc(CC(=O)NCCC(=O)NCCCOc3cccc(CN4CCCCC4)c3)cc2)N=C(c2ccccc2)c2ccccc21
pIC50 [27]: 6.87 | pIC50 [28]: 6.54 | Kb [29]: 251 nM

O=C(O)CCNC(=O)C(CS)Cc1ccccc1 (configuration not stated)
pIC50 [24]: 4.49 | pIC50 [25]: 8.03

O=C(N[C@H](CN1CCC(OC2c3ccccc3CCc3ccccc32)CC1)C(=O)O)OCc1ccccc1
pKd [30]: 6.39 | pIC50 [10]: 5.81

CN[C@@H](CCOc1ccc([N+](=O)[O-])cc1)c1ccc(OC(=O)N(C)C)cc1
pIC50 [3]: 7.38 | pIC50 [31]: 7.00

Cc1ccc2c(OCCN3CCC(Cc4ccc5c(c4)NC(=O)CO5)CC3)cccc2n1
Log Ki [32]: < -6.3 | pKi [19]: 8.20

COc1cc(C(=O)N2CC[C@](CCN3CCC(C(N)=O)(c4ccccc4)CC3)(c3ccc(Cl)c(Cl)c3)C2)cc(OC)c1OC
pIC50 [26]: 8.52 | pIC50 [33]: < 5.00

NC(=O)C1(c2ccccc2)CCN(CC[C@@]2(c3ccc(Cl)c(Cl)c3)CCN(C(=O)c3ccccc3)C2)CC1
pIC50 [11]: 6.79 | pIC50 [12]: 8.65

CC(C)C[C@H](CC(=O)NO)C(=O)N[C@@H](Cc1ccccc1)C(=O)N[C@@H](C)C=O
pIC50 [34]: 7.60

COc1ccc(C2(CCN3CCC(C(=O)c4nc5ccccc5n4Cc4ccc(F)cc4)CC3)CCN(C(=O)c3cc(OC)c(OC)c(OC)c3)C2)cc1OC (configuration not stated)
pIC50 [33]: 7.51

Fc1cc2c(c(OCCNCCCc3c[nH]c4ccc(F)cc34)c1)OCCC2
pKi [14]: 9.30 | inhibition [35]: 79%
